Measured values reported in patent publication US10167262B2, “Herbicidal substituted 3-arylpyrazoles” (FMC CORPORATION, priority 2014, dated 2019).

What was measured:
Experiment in all cases: Test C pre-/postemergence greenhouse test, plant response rating 0-100;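 on Plant response rating (0 to 100), Blackgrass: 0 is no effect and 100 is complete control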;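 on Plant response rating (0 to 100), Ragweed: 0 is no effect and 100 is complete control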;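 on Plant response rating, Blackgrass: 0 is no effect and 100 is complete control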;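 on Plant response rating, Ragweed: 0 is no effect and 100 is complete control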
Format in all cases: in vivo
[1] = test system: giant foxtail (Setaria faberii); conditions: Postemergence; for Plant response rating, Foxtail, Giant: scale 0 to 100
How it was run: (§1)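 Plants were treated either at seeding (soil of loam and sand) or as 2–18 cm seedlings in a sphagnum peat mix, using test chemicals in a surfactant-containing non-phytotoxic solvent. Visual assessment relative to controls followed 13–15 days later.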

[2] = test system: corn (Zea mays); conditions: Postemergence; for Plant response rating, Corn: scale 0 to 100
How it was run: as §1

[3] = test system: soybean (Glycine max); conditions: Postemergence; for Plant response rating, Soybean: scale 0 to 100
How it was run: as §1

[4] = test system: lambsquarters (Chenopodium album); conditions: Postemergence; for Plant response rating, Lambsquarters: scale 0 to 100
How it was run: as §1

[5] = test system: johnsongrass (Sorghum halepense); conditions: Postemergence; for Plant response rating, Johnsongrass: scale 0 to 100
How it was run: as §1

[6] = test system: large (Lg) crabgrass (Digitaria sanguinalis); conditions: Postemergence; for Plant response rating, Crabgrass, Large: scale 0 to 100
How it was run: as §1

[7] = test system: Italian ryegrass (Lolium multiflorum); conditions: Postemergence; for Plant response rating, Ryegrass, Italian: scale 0 to 100
How it was run: as §1

[8] = test system: velvetleaf (Abutilon theophrasti); conditions: Postemergence; for Plant response rating, Velvetleaf: 250 g ai/ha, scale 0 to 100
How it was run: as §1

[9] = test system: ragweed (common ragweed, Ambrosia elatior); conditions: Postemergence; for Plant response rating, Ragweed: scale 0 to 100;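 on all read-outs here: 0 is no effect and 100 is complete control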
How it was run: as §1

[10] = test system: yellow nutsedge (Cyperus esculentus); conditions: Postemergence; for Plant response rating, Nutsedge, Yellow: scale 0 to 100
How it was run: as §1

[11] = test system: pigweed (Amaranthus retroflexus); conditions: Postemergence; for Plant response rating, Pigweed: scale 0 to 100
How it was run: as §1

[12] = test system: winter wheat (Triticum aestivum); conditions: Postemergence; for Plant response rating, Wheat: scale 0 to 100
How it was run: as §1

[13] = test system: blackgrass (Alopecurus myosuroides); conditions: Postemergence; for Plant response rating, Blackgrass: scale 0 to 100;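 on all read-outs here: 0 is no effect and 100 is complete control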
How it was run: as §1

CC(C)n1cc(C(=O)c2ccccc2)c(-c2cc(Cl)cc(Cl)c2)n1 [Compound 44]
55: Plant response rating, Lambsquarters ([4]; 250 g ai/ha)
20: Plant response rating, Foxtail, Giant ([1]; 250 g ai/ha)
100: Plant response rating, Pigweed ([11]; 250 g ai/ha)
0: Plant response rating (0 to 100), Foxtail, Giant ([1]; 31 g ai/ha) | Plant response rating (0 to 100), Foxtail, Giant ([1]; 62 g ai/ha) | Plant response rating (0 to 100), Foxtail, Giant ([1]; 125 g ai/ha) | Plant response rating (0 to 100), Corn ([2]; 31 g ai/ha) | Plant response rating (0 to 100), Johnsongrass ([5]; 62 g ai/ha) | Plant response rating (0 to 100), Johnsongrass ([5]; 125 g ai/ha) | Plant response rating, Johnsongrass ([5]; 250 g ai/ha) | Plant response rating (0 to 100), Crabgrass, Large ([6]; 31 g ai/ha) | Plant response rating (0 to 100), Ryegrass, Italian ([7]; 62 g ai/ha) | Plant response rating (0 to 100), Ryegrass, Italian ([7]; 125 g ai/ha) | Plant response rating, Ryegrass, Italian ([7]; 250 g ai/ha) | Plant response rating (0 to 100), Nutsedge, Yellow ([10]; 62 g ai/ha) | Plant response rating (0 to 100), Nutsedge, Yellow ([10]; 125 g ai/ha) | Plant response rating, Nutsedge, Yellow ([10]; 250 g ai/ha) | Plant response rating (0 to 100), Wheat ([12]; 62 g ai/ha) | Plant response rating (0 to 100), Wheat ([12]; 125 g ai/ha) | Plant response rating, Wheat ([12]; 250 g ai/ha) | Plant response rating (0 to 100), Blackgrass ([13]; 31 g ai/ha) | Plant response rating (0 to 100), Blackgrass ([13]; 62 g ai/ha) | Plant response rating (0 to 100), Blackgrass ([13]; 125 g ai/ha) | Plant response rating, Blackgrass ([13]; 250 g ai/ha)
10: Plant response rating, Corn ([2]; 250 g ai/ha) | Plant response rating, Crabgrass, Large ([6]; 250 g ai/ha) | Plant response rating, Ragweed ([9]; 250 g ai/ha)
75: Plant response rating (0 to 100), Velvetleaf ([8]; 125 g ai/ha)
60: Plant response rating (0 to 100), Velvetleaf ([8]; 62 g ai/ha) | Plant response rating (0 to 100), Pigweed ([11]; 62 g ai/ha) | Plant response rating (0 to 100), Pigweed ([11]; 125 g ai/ha)
45: Plant response rating (0 to 100), Lambsquarters ([4]; 62 g ai/ha) | Plant response rating (0 to 100), Lambsquarters ([4]; 125 g ai/ha)
5: Plant response rating (0 to 100), Corn ([2]; 62 g ai/ha) | Plant response rating (0 to 100), Corn ([2]; 125 g ai/ha) | Plant response rating (0 to 100), Soybean ([3]; 62 g ai/ha) | Plant response rating (0 to 100), Soybean ([3]; 125 g ai/ha) | Plant response rating, Soybean ([3]; 250 g ai/ha) | Plant response rating (0 to 100), Crabgrass, Large ([6]; 62 g ai/ha) | Plant response rating (0 to 100), Crabgrass, Large ([6]; 125 g ai/ha) | Plant response rating (0 to 100), Ragweed ([9]; 62 g ai/ha) | Plant response rating (0 to 100), Ragweed ([9]; 125 g ai/ha)
80: Plant response rating, Velvetleaf [8]

ON=C(c1ccccc1)c1c[nH]nc1-c1cc(Cl)cc(Cl)c1 [Compound 50]
80: Plant response rating (0 to 100), Lambsquarters ([4]; 62 g ai/ha)
90: Plant response rating (0 to 100), Velvetleaf ([8]; 125 g ai/ha)
0: Plant response rating (0 to 100), Foxtail, Giant ([1]; 31 g ai/ha) | Plant response rating (0 to 100), Foxtail, Giant ([1]; 62 g ai/ha) | Plant response rating (0 to 100), Foxtail, Giant ([1]; 125 g ai/ha) | Plant response rating, Foxtail, Giant ([1]; 250 g ai/ha) | Plant response rating (0 to 100), Corn ([2]; 31 g ai/ha) | Plant response rating (0 to 100), Corn ([2]; 62 g ai/ha) | Plant response rating (0 to 100), Corn ([2]; 125 g ai/ha) | Plant response rating, Corn ([2]; 250 g ai/ha) | Plant response rating (0 to 100), Soybean ([3]; 62 g ai/ha) | Plant response rating (0 to 100), Soybean ([3]; 125 g ai/ha) | Plant response rating, Soybean ([3]; 250 g ai/ha) | Plant response rating (0 to 100), Johnsongrass ([5]; 62 g ai/ha) | Plant response rating (0 to 100), Johnsongrass ([5]; 125 g ai/ha) | Plant response rating, Johnsongrass ([5]; 250 g ai/ha) | Plant response rating (0 to 100), Crabgrass, Large ([6]; 31 g ai/ha) | Plant response rating (0 to 100), Crabgrass, Large ([6]; 62 g ai/ha) | Plant response rating (0 to 100), Crabgrass, Large ([6]; 125 g ai/ha) | Plant response rating, Crabgrass, Large ([6]; 250 g ai/ha) | Plant response rating (0 to 100), Ryegrass, Italian ([7]; 62 g ai/ha) | Plant response rating (0 to 100), Ryegrass, Italian ([7]; 125 g ai/ha) | Plant response rating, Ryegrass, Italian ([7]; 250 g ai/ha) | Plant response rating (0 to 100), Ragweed ([9]; 62 g ai/ha) | Plant response rating (0 to 100), Ragweed ([9]; 125 g ai/ha) | Plant response rating (0 to 100), Nutsedge, Yellow ([10]; 62 g ai/ha) | Plant response rating (0 to 100), Nutsedge, Yellow ([10]; 125 g ai/ha) | Plant response rating, Nutsedge, Yellow ([10]; 250 g ai/ha) | Plant response rating (0 to 100), Wheat ([12]; 62 g ai/ha) | Plant response rating (0 to 100), Wheat ([12]; 125 g ai/ha) | Plant response rating, Wheat ([12]; 250 g ai/ha) | Plant response rating (0 to 100), Blackgrass ([13]; 31 g ai/ha) | Plant response rating (0 to 100), Blackgrass ([13]; 62 g ai/ha) | Plant response rating (0 to 100), Blackgrass ([13]; 125 g ai/ha) | Plant response rating, Blackgrass ([13]; 250 g ai/ha)
45: Plant response rating, Ragweed ([9]; 250 g ai/ha)
100: Plant response rating (0 to 100), Lambsquarters ([4]; 125 g ai/ha) | Plant response rating, Lambsquarters ([4]; 250 g ai/ha) | Plant response rating (0 to 100), Pigweed ([11]; 125 g ai/ha) | Plant response rating, Pigweed ([11]; 250 g ai/ha)
95: Plant response rating, Velvetleaf [8]
75: Plant response rating (0 to 100), Velvetleaf ([8]; 62 g ai/ha) | Plant response rating (0 to 100), Pigweed ([11]; 62 g ai/ha)

Cn1cc(C(=O)c2ccccc2)c(-c2cc(Br)cc(Br)c2)n1 [Compound 53]
0: Plant response rating (0 to 100), Foxtail, Giant ([1]; 62 g ai/ha) | Plant response rating (0 to 100), Foxtail, Giant ([1]; 125 g ai/ha) | Plant response rating (0 to 100), Soybean ([3]; 62 g ai/ha) | Plant response rating (0 to 100), Soybean ([3]; 125 g ai/ha) | Plant response rating, Soybean ([3]; 250 g ai/ha) | Plant response rating (0 to 100), Johnsongrass ([5]; 62 g ai/ha) | Plant response rating (0 to 100), Johnsongrass ([5]; 125 g ai/ha) | Plant response rating, Johnsongrass ([5]; 250 g ai/ha) | Plant response rating, Johnsongrass ([5]; 500 g ai/ha) | Plant response rating (0 to 100), Crabgrass, Large ([6]; 62 g ai/ha) | Plant response rating (0 to 100), Crabgrass, Large ([6]; 125 g ai/ha) | Plant response rating, Crabgrass, Large ([6]; 250 g ai/ha) | Plant response rating, Crabgrass, Large ([6]; 500 g ai/ha) | Plant response rating (0 to 100), Ryegrass, Italian ([7]; 62 g ai/ha) | Plant response rating (0 to 100), Ryegrass, Italian ([7]; 125 g ai/ha) | Plant response rating, Ryegrass, Italian ([7]; 250 g ai/ha) | Plant response rating, Ryegrass, Italian ([7]; 500 g ai/ha) | Plant response rating (0 to 100), Nutsedge, Yellow ([10]; 62 g ai/ha) | Plant response rating (0 to 100), Nutsedge, Yellow ([10]; 125 g ai/ha) | Plant response rating, Nutsedge, Yellow ([10]; 250 g ai/ha) | Plant response rating, Nutsedge, Yellow ([10]; 500 g ai/ha) | Plant response rating (0 to 100), Wheat ([12]; 62 g ai/ha) | Plant response rating (0 to 100), Wheat ([12]; 125 g ai/ha) | Plant response rating, Wheat ([12]; 250 g ai/ha) | Plant response rating, Wheat ([12]; 500 g ai/ha) | Plant response rating (0 to 100), Blackgrass ([13]; 62 g ai/ha) | Plant response rating (0 to 100), Blackgrass ([13]; 125 g ai/ha) | Plant response rating, Blackgrass ([13]; 250 g ai/ha) | Plant response rating, Blackgrass ([13]; 500 g ai/ha)
5: Plant response rating (0 to 100), Corn ([2]; 62 g ai/ha) | Plant response rating (0 to 100), Corn ([2]; 125 g ai/ha) | Plant response rating, Corn ([2]; 250 g ai/ha) | Plant response rating, Corn ([2]; 500 g ai/ha) | Plant response rating, Soybean ([3]; 500 g ai/ha)
90: Plant response rating, Velvetleaf [8] | Plant response rating, Pigweed ([11]; 250 g ai/ha) | Plant response rating, Pigweed ([11]; 500 g ai/ha)
35: Plant response rating, Lambsquarters ([4]; 250 g ai/ha)
100: Plant response rating, Lambsquarters ([4]; 500 g ai/ha)
75: Plant response rating (0 to 100), Velvetleaf ([8]; 125 g ai/ha)
85: Plant response rating (0 to 100), Pigweed ([11]; 62 g ai/ha) | Plant response rating (0 to 100), Pigweed ([11]; 125 g ai/ha)
10: Plant response rating, Foxtail, Giant ([1]; 250 g ai/ha) | Plant response rating, Foxtail, Giant ([1]; 500 g ai/ha) | Plant response rating (0 to 100), Ragweed ([9]; 62 g ai/ha) | Plant response rating (0 to 100), Ragweed ([9]; 125 g ai/ha) | Plant response rating, Ragweed ([9]; 250 g ai/ha) | Plant response rating, Ragweed ([9]; 500 g ai/ha)
30: Plant response rating (0 to 100), Lambsquarters ([4]; 125 g ai/ha)
60: Plant response rating (0 to 100), Velvetleaf ([8]; 62 g ai/ha)
